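Results reflect a 48-hour exposure of cells in 96-well plates to compound at five concentrations. GI50 is the concentration that inhibits growth by half.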 Active and inactive are the calls of the source. Cut-off read from the data, not from the text of the source: active = GI50 up to about 1.1 µM and inactive = higher.
Legend:
Test in all cases: NCI tumour cell line growth inhibition, 48 h
DLD-1 = system: DLD-1
DMS-114 = system: DMS-114
HOP-18 = system: HOP-18
KM-20L2 = system: KM-20L2
LXFL 529 = system: LXFL 529
M19-MEL = system: M19-MEL
RXF 631 = system: RXF 631
SNB-78 = system: SNB-78
XF498 = system: XF498

Measured: GI50

CN(C)CCN(C)C(=O)c1cccc2cccc(C(=O)O)c12
inactive: DLD-1 > 100 µM | DMS-114 > 100 µM | HOP-18 > 100 µM | KM-20L2 > 100 µM | LXFL 529 > 100 µM | M19-MEL > 100 µM | RXF 631 > 100 µM | SNB-78 > 100 µM | XF498 > 100 µM

O=C(CCBr)N1CCN(C(=O)CCBr)CC1 [PIPOBROMAN]
inactive: DLD-1 90.2 µM | DMS-114 50.6 µM | HOP-18 121 µM | KM-20L2 119 µM | LXFL 529 71.6 µM | M19-MEL 86.9 µM | RXF 631 55.1 µM | SNB-78 114 µM | XF498 66.7 µM
